Data from PMC4191400 (Nucleic Acids Research, 2014).
“And” between values parts separate entries of the source, which are not always exact repeats. Identical values can stand only once. Like-named read-outs stand apart in the source and are kept apart here.

What was measured:
K101R/E138D/K103N HIV-1 = test: HIV-1 drug susceptibility assay, K101R/E138D/K103N virus; format: cell-based; conditions: for EC50: Human immunodeficiency virus 1, head: P4/R5 cells, footnote: TZM-bl cells, mean ± SD, read-out: EC50, inhibition of HIV-1 replication
Method: (§1) The genes for K103N, E138D/K101R and K101R/K103N/E138D RT were cloned into HIV-1LAI ([11]). NNRTI susceptibility was determined in TZM-bl cells as described previously ([21]).

K103N HIV-1 = test: HIV-1 drug susceptibility assay, K103N virus; format: cell-based
Method: as §1

K101R/E138D HIV-1 = test: HIV-1 drug susceptibility assay, K101R/E138D virus; format: cell-based; conditions: for EC50: Human immunodeficiency virus 1, head: P4/R5 cells, footnote: TZM-bl cells, mean ± SD, read-out: EC50, inhibition of HIV-1 replication
Method: as §1

WT HIV-1 = test: HIV-1 drug susceptibility assay (inhibition of HIV-1 replication), WT virus; format: cell-based; conditions: Human immunodeficiency virus 1, head: P4/R5 cells, footnote: TZM-bl cells, mean ± SD, at least three experiments
Method: as §1

WT RT–T/P complex [1] = molecular target: WT RT–T/P complex (Human immunodeficiency virus type 1 group M subtype B, UniProt P04585, C625V/C867S/D837C/T726C); design: species or system HIV-1; conditions: for Eapp (apparent FRET energy transfer, fingers-thumb): mean ± SD
Method: Single-molecule total internal reflection fluorescence (TIRF) microscopy was performed as described previously ([19]). For the PIFE assays, Cy3-labeled T/P molecules were surface-tethered to a polyethylene glycol (PEG) treated flow cell via a biotin:streptavidin:biotin-PEG linkage. The concentrations of T/P were typically 20 pM, which provided an optimal surface density of ∼100 molecules per field of view. […] For the FRET assays, unlabeled T/P was surface-tethered by introducing 2 μM T/P into the flow cell to allow formation of a surface-dense layer of T/P substrates. Labeled RT (40 pM) was then introduced into the flow cell and allowed to bind to the T/P. Unbound RT was removed by washing. The PIFE and FRET data were analyzed as described in Supplementary Materials and Methods.
All experiments were performed in 50 mM Tris-HCl, pH 7.5, 25 mM NaCl, and 5 mM MgCl2.
The buffer used in TIRF microscopy experiments also contained 0.1 mg/ml glucose oxidase, 0.02 mg/ml catalase, 0.4% wt/v β-d-glucose, and 2 mM Trolox. Unless otherwise indicated, the TTP, EFV and NVP concentrations were held at 50 μM, 500 nM and 1 μM, respectively, […]
Unlabeled T/P was surface tethered by introducing 2 µM T/P into the flow cell to allow formation of a surface-dense layer of T/P substrates, which promoted observation of RT-T/P complexes. 40 pM of labeled RT was then introduced into the flow cell and allowed to bind to the T/P. Unbound RT was removed by extensive washing. Low concentrations of RT followed by a wash step eliminated excess background noise and/or saturation of the EMCCD. Based on the relative distribution of donor and acceptor intensities observed in the TIRFM fields of view, […]
analyzed. Eapp was calculated using the equation: […]
where ID and IA denote background-corrected donor and acceptor intensities, respectively.
RT. Eapp histograms were subsequently constructed by collecting the pre-photobleach regions of all traces visibly resulting in donor and acceptor photobleaching, binned into 25 bins, and then fit with single Gaussian functions (see Supplementary Figure 3). Thumb/fingers distances reported in Supplementary Table 1 were derived from the fitted Eapp values using the Förster equation: […]
where r is the distance between the dipoles of Cy3 and Cy5, and Ro is the empirically calculated

K103N RT–T/P complex [2] = molecular target: T1, K103N RT–T/P complex (Human immunodeficiency virus type 1 group M subtype B, UniProt P04585, K690N); format: binding, HIV-1; conditions: K103N vs WT RT–T/P complex
T1 construct: asymmetric heterodimer composed of a 66-kDa (p66) subunit and a p66-derived 51-kDa (p51) subunit; made in house
Method: (§2) Fluorescence anisotropy experiments were performed as previously described ([17],[18]). Assays were carried out using a fluorescein-labeled T/P substrate. The concentration of T/P in all experiments was 5 nM (in a 400-μl cuvette). Data were analyzed as described in the Supplementary Materials and Methods section.
(§3) -ddC-3’) was annealed to a 5’-biotinylated 35 nucleotide DNA […]
(§4) template (5’-biotin-[…]-3’). We also […]
(§5) performed PIFE experiments using a 21 nucleotide DNA primer (5’-Cy3- […]
(§6) -ddC-3’) annealed to the same template. For the single-pair FRET experiments, the same T/P was used, but it lacked 5’-Cy3. For the anisotropy […]
(§7) Fluorescence anisotropy experiments were performed as previously described (5, 6), using a Varian Cary Eclipse fluorescence spectrophotometer. […]
(§8) 5 and 10 nm respectively. […] Anisotropy (r) was calculated as: r= (IVV-G·IVH)/(IVV+2·G·IVH) (1) where IVV is the fluorescence intensity with vertically oriented excitation and emission polarizers and IVH is the fluorescence intensity with a vertically oriented excitation polarizer and a horizontally oriented emission polarizer. The G-factor, defined as G=IHV/IHH, was measured […]
(§9) For all theoretical calculations, r was calculated using the Perrin equation: r=ro/(1+τ/ θ)                 (2) where ro is the fundamental anisotropy, τ  the lifetime and θ  the rotational correlation time (7). […]
(§10) analyzed. […]

WT HIV-1 RT = molecular target: T2, WT HIV-1 RT (Human immunodeficiency virus type 1 group M subtype B, UniProt P04585); test: biochemical; conditions: mean ± SD, at least four experiments, read-out: IC50, inhibition of RT RNA-dependent DNA polymerase activity
T2 construct: asymmetric heterodimer composed of a 66-kDa (p66) subunit and a p66-derived 51-kDa (p51) subunit; made in house
Method: (§11) The RNA- and DNA-dependent DNA polymerase activities of the purified and labeled RTs were assessed as described previously ([14]).

K101R/E138D HIV-1 RT = molecular target: T3, K101R/E138D HIV-1 RT (Human immunodeficiency virus type 1 group M subtype B, UniProt P04585, E725D/K688R); test: Inhibition of RT RNA-dependent DNA polymerase activity, K101R/E138D RT; format: biochemical
T3 construct: asymmetric heterodimer composed of a 66-kDa (p66) subunit and a p66-derived 51-kDa (p51) subunit; made in house
Method: as §11

WT RT–T/P complex [3] = molecular target: T4, WT RT–T/P complex (Human immunodeficiency virus type 1 group M subtype B, UniProt P04585); test: biochemical; design: species or system HIV-1; conditions: fluorescence anisotropy, 5 nM T/P, read-out: Kd, NNRTI binding to the RT–T/P complex
T4 construct: asymmetric heterodimer composed of a 66-kDa (p66) subunit and a p66-derived 51-kDa (p51) subunit; made in house
Method: as §2, §3, §4, §5, §6, §7, §8, §9, §10

K101R HIV-1 RT = molecular target: T5, K101R HIV-1 RT (Human immunodeficiency virus type 1 group M subtype B, UniProt P04585, K688R); test: Inhibition of RT RNA-dependent DNA polymerase activity, K101R RT; format: biochemical
T5 construct: asymmetric heterodimer composed of a 66-kDa (p66) subunit and a p66-derived 51-kDa (p51) subunit; made in house
Method: as §11

E138D HIV-1 RT = molecular target: T6, E138D HIV-1 RT (Human immunodeficiency virus type 1 group M subtype B, UniProt P04585, E725D); test: Inhibition of RT RNA-dependent DNA polymerase activity, E138D RT; format: biochemical
T6 construct: asymmetric heterodimer composed of a 66-kDa (p66) subunit and a p66-derived 51-kDa (p51) subunit; made in house
Method: as §11

K103N RT–T/P complex [4] = molecular target: T1, K103N RT–T/P complex; test: dTTP binding to RT-T/P complex by fluorescence anisotropy, K103N; design: species or system HIV-1; conditions: presence vs absence of EFV
Method: as §2, §3, §4, §5
-ddC-3’) annealed to the same template. For the single-pair FRET experiments, the same T/P was used, but it lacked 5’-Cy3. For the anisotropy experiments we used a 19 nt DNA primer (5’-Fluorescein-dT-[…]- […]
Fluorescence anisotropy experiments were performed as previously described (5, 6), using a Varian Cary Eclipse fluorescence spectrophotometer. […] Anisotropy (r) was calculated as: r= (IVV-G·IVH)/(IVV+2·G·IVH) (1) where IVV is the fluorescence intensity with vertically oriented excitation and emission polarizers and IVH is the fluorescence intensity with a vertically oriented excitation polarizer and a horizontally oriented emission polarizer. The G-factor, defined as G=IHV/IHH, was measured before each experiment to ensure a value of ~ 1.65. […]
For fluorescein, empirically determined values of ro = […] and τ = 4.1 ns were used (8, 9). θ was calculated using the equation: […]
as §10

[5] = Human immunodeficiency virus 1, K103N virus, head: P4/R5 cells, footnote: TZM-bl cells, mean ± SD, read-out: EC50, inhibition of HIV-1 replication

SMILES: O=C1Nc2ccc(Cl)cc2[C@@](C#CC2CC2)(C(F)(F)F)O1 [Efavirenz, efavirenz]
- EC50 (K101R/E138D/K103N HIV-1): 15.9 ± 2.4 nM
- EC50 (K103N HIV-1; Human immunodeficiency virus 1, read-out: EC50, inhibition of HIV-1 replication): 64 ± 18.7 nM
- Increase of susceptibility (as measured by IC50 and EC50) by the E138D/K101R mutation (K101R/E138D HIV-1; E138D/K101R vs WT): up to 7 fold
- EC50 (K101R/E138D HIV-1; K101R/E138D virus): 0.2 nM
- EC50 (WT HIV-1): 1.3 ± 0.2 nM

SMILES: Cc1ccnc2c1NC(=O)c1cccnc1N2C1CC1 [Nevirapine, nevirapine]
- EC50 (K101R/E138D/K103N HIV-1): > 200 nM
- EC50 (K103N HIV-1; [5]): > 200 nM
- Eapp (apparent FRET energy transfer, fingers-thumb) (WT RT–T/P complex [1]; WT RT-T/P plus NNRTI (EFV 500 nM, NVP 1 μM), centre of Gaussian fit, listed as NVP): 0.68 ± 0.18 and 0.68
- Eapp (apparent FRET energy transfer, fingers-thumb) (WT RT–T/P complex [1]; WT RT-T/P-dNTP plus NNRTI): 0.72 ± 0.14
- Average opening of the fingers and thumb (WT RT–T/P complex [1]; WT RT–T/P complex, NNRTI vs no inhibitor): 2.0 Å
- Effect on fingers/thumb FRET of the ternary complex (WT RT–T/P complex [1]; WT RT–T/P–dNTP complex, NNRTI infused): did not affect the FRET histogram
- EC50 (K101R/E138D HIV-1; K101R/E138D virus): 21.6 ± 16.8 nM
- EC50 (WT HIV-1): 24.6 ± 5.9 nM
- Decrease of binding affinity by the K103N substitution (K103N RT–T/P complex [2]): ~10 fold

SMILES: Cc1cc(/C=C/C#N)cc(C)c1Nc1ccnc(Nc2ccc(C#N)cc2)n1 [Rilpivirine, rilpivirine]
- IC50 (WT HIV-1 RT): 22.5 ± 2.2 nM
- Fold-R (EC50 mutant/EC50 WT) (K101R/E138D/K103N HIV-1): 0.3
- EC50 (K101R/E138D/K103N HIV-1): 0.12 ± 0.03 nM
- Fold-R (IC50 mutant/IC50 WT) (K101R/E138D HIV-1 RT): 0.5
- IC50 (K101R/E138D HIV-1 RT; mean ± SD): 11.2 ± 0.8 nM
- Kd (WT RT–T/P complex [3]): 82.5 nM
- EC50 (K103N HIV-1; [5]): 0.4 ± 0.1 nM
- Fold-R (EC50 mutant/EC50 WT) (K103N HIV-1; K103N virus): 1.1
- Fold-R (IC50 mutant/IC50 WT) (K101R HIV-1 RT): 0.7
- IC50 (K101R HIV-1 RT; mean ± SD): 15.5 ± 7.6 nM
- EC50 (K101R/E138D HIV-1; K101R/E138D virus): 0.06 ± 0.01 nM
- Fold-R (EC50 mutant/EC50 WT) (K101R/E138D HIV-1; K101R/E138D virus): 0.2
- Fold-R (IC50 mutant/IC50 WT) (E138D HIV-1 RT): 0.4
- IC50 (E138D HIV-1 RT; mean ± SD): 8.3 ± 1.2 nM
- EC50 (WT HIV-1): 0.37 ± 0.06 nM
- Effect of the K103N substitution on NNRTI binding affinity (K103N RT–T/P complex [2]): did not decrease the binding affinity

SMILES: Cc1cn([C@H]2C[C@H](O)[C@@H](COP(=O)(O)OP(=O)(O)OP(=O)(O)O)O2)c(=O)[nH]c1=O [dTTP]
- Increase of Kd for dTTP binding in the presence of inhibitor (K103N RT–T/P complex [4]): 3 fold
